Measurements published in the NIST ThermoML archive (doi:10.1016/j.jct.2013.04.021).
± gives the expanded uncertainty stated by the source.

Assay: xn = mol fraction of the nth substance listed
Conditions: 101 kPa, Liquid; for mass density: Vibrating tube method; for speed of sound: fixed-path interferometer; for viscosity: Capillary tube (Ostwald / Ubbelohde) method

## CCCCOCCO [2-butoxyethan-1-ol] + CCCCCCO
303.15 K, x1 = 0.5039
  mass density: 852.713 ± 0.24 kg/m3
  speed of sound: 1284.8 ± 1.5 m/s
303.15 K, x1 = 0.5932
  mass density: 859.852 ± 0.24 kg/m3
  speed of sound: 1285.2 ± 1.5 m/s
303.15 K, x1 = 0.7003
  mass density: 868.399 ± 0.24 kg/m3
  speed of sound: 1285.9 ± 1.5 m/s
303.15 K, x1 = 0.8019
  mass density: 876.485 ± 0.24 kg/m3
  speed of sound: 1286.8 ± 1.5 m/s
303.15 K, x1 = 0.8545
  mass density: 880.662 ± 0.24 kg/m3
  speed of sound: 1287.4 ± 1.5 m/s
303.15 K, x1 = 0.8987
  mass density: 884.162 ± 0.24 kg/m3
  speed of sound: 1288 ± 1.5 m/s
303.15 K, x1 = 0.9522
  mass density: 888.376 ± 0.24 kg/m3
  speed of sound: 1288.7 ± 1.5 m/s
303.15 K, x1 = 0.0535
  speed of sound: 1286.3 ± 1.5 m/s
303.15 K, x1 = 0.1046
  speed of sound: 1285.8 ± 1.5 m/s
303.15 K, x1 = 0.1546
  speed of sound: 1285.5 ± 1.5 m/s
303.15 K, x1 = 0.2054
  speed of sound: 1285.2 ± 1.5 m/s
303.15 K, x1 = 0.253
  speed of sound: 1284.9 ± 1.5 m/s
303.15 K, x1 = 0.2999
  speed of sound: 1284.8 ± 1.5 m/s
303.15 K, x1 = 0.4044
  speed of sound: 1284.7 ± 1.5 m/s
308.15 K, x1 = 0.0535
  viscosity: 3.243 ± 0.071 mPa·s
  mass density: 812.694 ± 0.24 kg/m3
  speed of sound: 1269.6 ± 1.5 m/s
308.15 K, x1 = 0.1046
  viscosity: 3.12 ± 0.068 mPa·s
  mass density: 816.794 ± 0.24 kg/m3
  speed of sound: 1269.2 ± 1.5 m/s
308.15 K, x1 = 0.1546
  viscosity: 3.006 ± 0.066 mPa·s
  mass density: 820.816 ± 0.24 kg/m3
  speed of sound: 1268.8 ± 1.5 m/s
308.15 K, x1 = 0.2054
  viscosity: 2.896 ± 0.064 mPa·s
  mass density: 824.902 ± 0.24 kg/m3
  speed of sound: 1268.6 ± 1.5 m/s
308.15 K, x1 = 0.253
  viscosity: 2.807 ± 0.062 mPa·s
  mass density: 828.737 ± 0.24 kg/m3
  speed of sound: 1268.3 ± 1.5 m/s
308.15 K, x1 = 0.2999
  viscosity: 2.736 ± 0.06 mPa·s
  mass density: 832.499 ± 0.24 kg/m3
  speed of sound: 1268.2 ± 1.5 m/s
308.15 K, x1 = 0.4044
  viscosity: 2.597 ± 0.056 mPa·s
  mass density: 840.855 ± 0.24 kg/m3
  speed of sound: 1268.1 ± 1.5 m/s
308.15 K, x1 = 0.5039
  viscosity: 2.499 ± 0.054 mPa·s
  mass density: 848.772 ± 0.24 kg/m3
  speed of sound: 1268.2 ± 1.5 m/s
308.15 K, x1 = 0.5932
  viscosity: 2.43 ± 0.053 mPa·s
  mass density: 855.859 ± 0.24 kg/m3
  speed of sound: 1268.6 ± 1.5 m/s
308.15 K, x1 = 0.7003
  viscosity: 2.367 ± 0.051 mPa·s
  mass density: 864.345 ± 0.24 kg/m3
  speed of sound: 1269.2 ± 1.5 m/s
308.15 K, x1 = 0.8019
  viscosity: 2.311 ± 0.05 mPa·s
  mass density: 872.393 ± 0.24 kg/m3
  speed of sound: 1270.1 ± 1.5 m/s
308.15 K, x1 = 0.8545
  viscosity: 2.284 ± 0.05 mPa·s
  mass density: 876.541 ± 0.24 kg/m3
  speed of sound: 1270.6 ± 1.5 m/s
308.15 K, x1 = 0.8987
  viscosity: 2.275 ± 0.05 mPa·s
  mass density: 880.024 ± 0.24 kg/m3
  speed of sound: 1271.1 ± 1.5 m/s
308.15 K, x1 = 0.9522
  viscosity: 2.242 ± 0.05 mPa·s
  mass density: 884.199 ± 0.24 kg/m3
  speed of sound: 1271.8 ± 1.5 m/s
313.15 K, x1 = 0.0535
  mass density: 809.018 ± 0.24 kg/m3
  speed of sound: 1253 ± 1.5 m/s
313.15 K, x1 = 0.1046
  mass density: 813.092 ± 0.24 kg/m3
  speed of sound: 1252.7 ± 1.5 m/s
313.15 K, x1 = 0.1546
  mass density: 817.077 ± 0.24 kg/m3
  speed of sound: 1252.4 ± 1.5 m/s
313.15 K, x1 = 0.2054
  mass density: 821.127 ± 0.24 kg/m3
  speed of sound: 1252.2 ± 1.5 m/s
313.15 K, x1 = 0.253
  mass density: 824.921 ± 0.24 kg/m3
  speed of sound: 1252 ± 1.5 m/s
313.15 K, x1 = 0.2999
  mass density: 828.653 ± 0.24 kg/m3
  speed of sound: 1251.9 ± 1.5 m/s
313.15 K, x1 = 0.4044
  mass density: 836.942 ± 0.24 kg/m3
  speed of sound: 1251.8 ± 1.5 m/s
313.15 K, x1 = 0.5039
  mass density: 844.805 ± 0.24 kg/m3
  speed of sound: 1251.9 ± 1.5 m/s
313.15 K, x1 = 0.5932
  mass density: 851.852 ± 0.24 kg/m3
  speed of sound: 1252.2 ± 1.5 m/s
313.15 K, x1 = 0.7003
  mass density: 860.279 ± 0.24 kg/m3
  speed of sound: 1252.7 ± 1.5 m/s
313.15 K, x1 = 0.8019
  mass density: 868.245 ± 0.24 kg/m3
  speed of sound: 1253.4 ± 1.5 m/s
313.15 K, x1 = 0.8545
  mass density: 872.354 ± 0.24 kg/m3
  speed of sound: 1253.9 ± 1.5 m/s
313.15 K, x1 = 0.8987
  mass density: 875.803 ± 0.24 kg/m3
  speed of sound: 1254.3 ± 1.5 m/s
313.15 K, x1 = 0.9522
  mass density: 879.956 ± 0.24 kg/m3
  speed of sound: 1254.9 ± 1.5 m/s
